# Reference: ChEMBL document CHEMBL1201862, “PubChem BioAssay data set” (2004)
#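 Cultured in 96-well plates, cells were exposed to test compound for 48 hours across five concentrations. Here, GI50 denotes the concentration required for 50% inhibition of growth.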 Calls of active or inactive are those of the source. No stated cut-off is given here; in the data, active = GI50 up to about 1.1 µM and inactive = higher.
# Columns and labels:
# Assay in all cases: NCI anticancer screen, dose series, 48 h
# HCT-116 = tested on: HCT-116
# HL-60 = tested on: HL-60
# OVCAR-5 = tested on: OVCAR-5
# SW-620 = tested on: SW-620
# SNB-75 = tested on: SNB-75
# OVCAR-4 = tested on: OVCAR-4
# COLO 205 = tested on: COLO 205
# EKVX = tested on: EKVX
# CCRF-CEM = tested on: CCRF-CEM
# NCI-H522 = tested on: NCI-H522
# MDA-MB-231 = tested on: MDA-MB-231
# MDA-N = tested on: MDA-N
# TK-10 = tested on: TK-10
# SR = tested on: SR
# ACHN = tested on: ACHN
# DU-145 = tested on: DU-145
# UACC-257 = tested on: UACC-257
# NCI-H226 = tested on: NCI-H226
# KM12 = tested on: KM12
SMILES,GI50 (HCT-116),GI50 (HL-60),GI50 (OVCAR-5),GI50 (SW-620),GI50 (SNB-75),GI50 (OVCAR-4),GI50 (COLO 205),GI50 (EKVX),GI50 (CCRF-CEM),GI50 (NCI-H522),GI50 (MDA-MB-231),GI50 (MDA-N),GI50 (TK-10),GI50 (SR),GI50 (ACHN),GI50 (DU-145),GI50 (UACC-257),GI50 (NCI-H226),GI50 (KM12)
CC(C)(Cl)C(Br)CCC(C)(Cl)C(Br)CBr (configuration not stated),18.8 µM (inactive),19.4 µM (inactive),18.7 µM (inactive),27.5 µM (inactive),25.1 µM (inactive),28.3 µM (inactive),18.5 µM (inactive),32.1 µM (inactive),18.8 µM (inactive),16.3 µM (inactive),23.3 µM (inactive),31 µM (inactive),35.4 µM (inactive),2.58 µM (inactive),21.2 µM (inactive),29 µM (inactive),19.6 µM (inactive),25.4 µM (inactive),–
C[C@]12CC/C(=N\O)C=C1CC[C@@H]1[C@@H]2CC[C@]2(C)C(=N/O)/C(=C/c3ccncc3)C[C@@H]12,10 µM (inactive),0.1 µM (active),42.8 µM (inactive),37.4 µM (inactive),25.5 µM (inactive),31.9 µM (inactive),15.9 µM (inactive),25.7 µM (inactive),–,27.2 µM (inactive),20.8 µM (inactive),21.7 µM (inactive),36.1 µM (inactive),12.7 µM (inactive),18.7 µM (inactive),31.6 µM (inactive),28.4 µM (inactive),6.37 µM (inactive),17.3 µM (inactive)
N#Cc1cc2c(n(C3OC(CO)C(O)C(O)C3O)c1=S)CCC2 (configuration not stated),> 100 µM (inactive),> 100 µM (inactive),> 100 µM (inactive),–,97.3 µM (inactive),> 100 µM (inactive),> 100 µM (inactive),–,> 100 µM (inactive),> 100 µM (inactive),> 100 µM (inactive),> 100 µM (inactive),> 100 µM (inactive),> 100 µM (inactive),> 100 µM (inactive),> 100 µM (inactive),> 100 µM (inactive),> 100 µM (inactive),> 100 µM (inactive)
Nc1nn2c(C(Br)Br)cc(C(Br)Br)nc2c1[N+](=O)[O-],0.634 µM (active),0.178 µM (active),1.72 µM (inactive),0.244 µM (active),1.08 µM (active),1.45 µM (inactive),0.659 µM (active),2.37 µM (inactive),0.161 µM (active),0.37 µM (active),1.6 µM (inactive),1.34 µM (inactive),0.971 µM (active),0.283 µM (active),0.861 µM (active),1.68 µM (inactive),1.32 µM (inactive),2.21 µM (inactive),1.32 µM (inactive)
